We go through five compounds from patent US9278956B1, “Small-molecule inhibitors of Rac1 in metastatic cancer cells” (University of Puerto Rico, priority 2012, dated 2016).

In series [1] the test system is Rac. The settings on record: cited from earlier work.
Series [2] has as its system Rac. Briefly: Rac.GTP pull-down (GST-PAK1 p21 binding domain), MDA-MB-435 cells. It counts as cell-based, human. As for the experimental part:
(§1) Rho, Rac, and Cdc42 activities were analyzed from MDA-MB-435 cell lysates by pulldown assays using GST-Rho binding domain from Rhotekin to isolate active GTP bound Rho, and a GST-p21 binding domain of PAK1 to isolate active Rac.GTP or Cdc42.GTP. Active and total Rho GTPases were identified by western blotting with specific antibodies: anti RhoA, anti Rac (1,2,3), anti Rac3, or anti Cdc42 (Cell Signaling Technology, Inc., Danvers, Mass.).
(§2) Cell lysates or pulldowns were western blotted using routine laboratory procedures. Anti-RhoA, -Rac (1,2,3), -Cdc42, -p-PAK^Thr423 antibodies were from Cell Signaling Technology, Inc., Danvers, Mass. Anti Vav2 was from Zymed, San Francisco, Calif.; and Rac3, PAK1, Tiam-1, and Trio antibodies were from Santa Cruz Biotechnology, Inc., Santa Cruz, Calif.

The test system of series [3] is Rac. The series is described as follows: Rac.GTP pull-down (GST-PAK1 p21 binding domain), MDA-MB-231 cells. The class given is cell-based, human. Particulars: read-out: IC50 for inhibition of Rac activity. As for the experimental part:
as §1, §2

In another series the target is T1, Rac3 (Homo sapiens, UniProt P60763).
T1 construct: endogenous in cells; host or cells: MDA-MB-435
Briefly: Rac3-GTP pull-down, MDA-MB-435 cells. The class given is cell-based. The method, then: as §1, §2

Another series deals with T2, Cdc42 (Homo sapiens, UniProt P60953).
T2 construct: endogenous in cells; host or cells: MDA-MB-435
T2 sequence (P60953 whole entry): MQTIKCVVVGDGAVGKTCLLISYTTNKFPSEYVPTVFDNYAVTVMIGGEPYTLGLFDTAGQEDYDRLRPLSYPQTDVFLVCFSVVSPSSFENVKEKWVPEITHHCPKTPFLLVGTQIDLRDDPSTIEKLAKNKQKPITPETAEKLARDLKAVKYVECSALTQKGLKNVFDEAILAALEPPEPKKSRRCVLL
The series is described as follows: Cdc42-GTP pull-down, MDA-MB-435 cells. It counts as cell-based. The method, then: as §1, §2

The target in the next series is T3, RhoA (Homo sapiens, UniProt P61586).
T3 construct: endogenous in cells; host or cells: MDA-MB-435
T3 sequence (P61586 whole entry): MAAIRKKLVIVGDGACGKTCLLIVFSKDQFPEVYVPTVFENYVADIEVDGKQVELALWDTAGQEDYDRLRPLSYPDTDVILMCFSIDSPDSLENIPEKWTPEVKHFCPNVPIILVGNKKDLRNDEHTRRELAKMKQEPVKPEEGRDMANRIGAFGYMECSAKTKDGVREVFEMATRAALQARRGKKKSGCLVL
The series is described as follows: RhoA-GTP pull-down (GST-Rhotekin Rho binding domain), MDA-MB-435 cells. The class given is cell-based. Particulars: 2, 4, 5, or 10 μM. As for the experimental part: as §1, §2

The target of series [4] is T4, Vav2 association with Rac1(G15A) (Homo sapiens, UniProt P63000, G15A).
T4 construct: purchased Cell Biolabs, San Diego, Calif; host or cells: Vav2: endogenous, MDA-MB-435 lysate
The series is described as follows: Precipitation of activated GEFs with GST-Rac1(G15A) from MDA-MB-435 lysates (Vav2). The class given is binding. Particulars: 1 h, p<0.005, read-out: association of Vav2 with Rac1(G15A), compared to controls. The method, then:
MDA-MB-435 cells in culture media were lysed in 1% Triton X-100, 20 mM HEPES, pH 7.4, 150 mM NaCl, 5 mM MgCl2, and protease inhibitors and processed. Equal amounts of protein from clarified lysates were incubated for 1 h at 4° C. with glutathione agarose beads conjugated to GST-Rac1(G15A) nucleotide free mutant (Cell Biolabs, San Diego, Calif.), that were pre-incubated (for 1 h) with vehicle or 2 or […] EHop-016. The beads were washed and the lysates and pulldowns immunoblotted for Tiam-1, Trio, or Vav2.

The test system of series [5] is MDA-MB-231 cells. The series is described as follows: Lamellipodia formation by fluorescence microscopy (Rhodamine phalloidin), MDA-MB-231. It counts as cell-based, human. Particulars: 4 μM, 24 h, control close to 100%. The method, then: Metastatic human cancer cell lines MDA-MB-435 and MDA-MB-231 (in DMEM with 10% FBS) were treated with vehicle (0.1% DMSO) or EHop-016 at 2 and 4 μM for 24 hrs. Cells were fixed, permeabilized, and stained with Rhodamine phalloidin to visualize F-actin.

In series [6] the test system is MDA-MB-435 cells. The series is described as follows: Lamellipodia formation by fluorescence microscopy (Rhodamine phalloidin), MDA-MB-435. The class given is cell-based, human.
The subject of the next series is PAK1. Briefly: PAK1 activity by Western blot for phospho-Thr 423, MDA-MB-435 cells. It counts as cell-based, human. Particulars: both 2 and 4 μM, 24 h. As for the experimental part:
as §2
The effect of EHop-016 on Rac action was also determined by analyzing the activity of the Rac downstream effector PAK that regulates Rac-mediated lamellipodia extension and directed cell migration. […] Since Rac/PAK signaling regulates directed cell migration, the effect of EHop-016 at 0-5 μM was determined on migration of MDA-MB-435 cells by using a Transwell assay. As shown in FIG. 6(B), treatment with 2 and 5 μM EHop-016 reduced directed cell migration by ˜60% at concentrations that reduced Rac activity by ˜80% as shown in FIG. 2 and FIGS. 4A-4E. It is possible that Rac may not be the only regulator of cell migration in this highly invasive cancer cell line.

Series [7] relates to MDA-MB-435 cells. The series is described as follows: Transwell cell migration assay. It counts as cell-based, human. Particulars: 2 and 5 μM, 24 h treatment, 4 h migration. As for the experimental part: Quiescent MDA-MB-435 cells were treated with vehicle or varying concentrations of EHop-016 (0-5 μM) for 24 hrs. Exactly 2×10^5 cells were placed on the top well of Transwell chambers (Corning Life Sciences, Lowell, Mass.) with media containing 10% FBS in the bottom well. The number of cells that migrated to the underside of the membrane following 4 h incubation was quantified for each treatment.

Series [8] has as its system MDA-MB-435 cells. The series is described as follows: MTT cell viability assay, MDA-MB-435. The class given is cell-based, human. The method, then:
(§3) […] Cell viability was measured using the MTT [3-(4,5-dimethylthiazol-2-yl)-2,5-diphenyl tetrazolium bromide] cell survival and proliferation kit (Millipore, Inc., Billerica, Mass.) according to manufacturer's instructions.
On the technique in general: Tetrazolium dyes change colour on reduction, which living cells bring about.

The subject of another series is MCF-10A cells. The series is described as follows: MTT cell viability assay, MCF-10A mammary epithelial cells. It counts as cell-based. As for the experimental part: as §3
In series [9] the test system is MDA-MB-231 cells. Briefly: MTT cell viability assay, MDA-MB-231. It counts as cell-based, human.
A short description of series [10]: Body weight and gross toxicity in athymic nude mice. It counts as in vivo. The settings on record: oral and intraperitoneal, 1 mg/kg once a week for 9 weeks; preliminary.
The target of another series is Rac1 (Homo sapiens, UniProt P63000). The series is described as follows: G-LISA Rac1 activation assay on MDA-MB-435 cell lysates. Also on record: selectivity among Rho GTPases: dose or concentration left out as unconfirmed.
Series [11] has as its target Tiam-1 DH/PH domain / Rac1(G15A) (Homo sapiens, UniProt P63000, G15A). Briefly: Interaction of purified Tiam-1 DH/PH domain with Rac1(G15A) beads.
Another series concerns the target Trio (Homo sapiens, UniProt O75962). Particulars: cited from earlier work.
The target in series [12] is Rac (Homo sapiens, UniProt P63000). Particulars: cited from earlier work.
Series [13] has as its system Rac. Particulars: fibroblasts; read-out: IC50 as Rac inhibitor in fibroblasts; cited from earlier work.

Read-outs that look alike come from different tables or passages of the source.

In the case of `O=c1cc(CN2CCOCC2)occ1OCCCCCSc1ccnc2cc(C(F)(F)F)ccc12` [EHT 1864], in the series with Rac [1], the “concentration interfering with Rac-downstream effector interaction” value is 10 to 50 µM and the “effective concentration as Rac inhibitor” value is 10 µM.

Turning to `CCn1c2ccccc2c2cc(Nc3ccnc(NCCCN4CCOCC4)n3)ccc21` [EHop-016, N^4-(9-Ethyl-9H-carbazol-3-yl)-N2-(3-morpholin-4-yl-propyl)-pyrimidine-2,4-diamine], the “inhibition of Rac activity” value in the series on Rac [2] (2 μM) was determined as 79%; with Rac [2] (4 μM), 93%. Also, the IC50 was about 3 µM with Rac [3] and 1.1 µM on Rac1 (read-out: IC50 for inhibition of Rac1 activity, MDA-MB-435 cells, 24 h treatment). In addition, the inhibition at 1 µM against Rac3 came out at 58%. Besides, the “effect on Cdc42 activity” value at Cdc42 (2 or 4 μM) was “did not affect”. The same compound registered an inhibition at 5 µM at Cdc42 (MDA-MB-435, 5 μM) of 28%. For the same compound, on Cdc42 (MDA-MB-435, 10 μM), the inhibition at 10 µM came out at 74%. In addition, the “increase of RhoA activity” value on RhoA was about 1.3 fold. The remaining activity at 4 µM in series [4] was about 50%. Also, the “cells that extended lamellipodia” value in the series with MDA-MB-231 cells [5] was about 30%; with MDA-MB-435 cells [6] (both 2 and 4 μM, 24 h, MDA-MB-435, control close to 100%), about 30%. Further, in the series on MDA-MB-435 cells [6] (2 and 4 μM), the “effect on extension of filopodia” value is listed as “did not affect”. Also, the “effect on PAK activity (phospho-Thr 423 PAK1)” value in the series on PAK1 is “dramatically inhibits”. Further, the “reduction of directed cell migration” value with MDA-MB-435 cells [7] is on record as about 60%. Besides, the “decrease in cell number compared to controls” value is given as about 30% in the series on MDA-MB-435 cells [8] (5 μM, MDA-MB-435, only a trend) and about 30% with MCF-10A cells (5 μM, MCF-10A, only a trend). Moreover, the cell viability remaining with MDA-MB-435 cells [8] (10 μM, MDA-MB-435) is reported as about 50%; with MCF-10A cells (10 μM, MCF-10A), about 50%. For the same compound, the “effect on cell viability” value is reported as “significant reduction” in the series on MDA-MB-435 cells [8] (25 μM, MDA-MB-435); “did not significantly affect” in the series on MDA-MB-435 cells [8] (1 or 2 μM, MDA-MB-435); “does not affect” in the series with MDA-MB-435 cells [8] (low concentrations (<5 μM)); “significant reduction” in the series on MCF-10A cells (25 μM, MCF-10A); “did not significantly affect” in the series on MCF-10A cells (1 or 2 μM, MCF10A); “significant reduction” with MDA-MB-231 cells [9] (25 μM). The “effect on cell viability” value with MDA-MB-231 cells [9] (1 or 2 μM) is “did not significantly affect”. Moreover, the “body weight and gross toxicity” value in series [10] was “no change in body weight or gross indications of toxicity”. On Rac1, the “potency relative to other currently available Rac inhibitors” value is 10-50 times. Also, at Rac1, the “selectivity among Rho GTPases” value was “specific for Rac1 and Rac3”. For the same compound, the “reduction of Rac activity” value at Rac1 (2 and 5 μM) is recorded as about 80%. In addition, on Rac1 (MDA-MB-435 cells), the “potency relative to NSC23766” value was “approximately 100 times”. For the same compound, the “concentration at which Tiam-1 DH/PH-Rac1(G15A) interaction is inhibited” value in [11] amounted to 40 µM. Besides, in [11] (5 μM), the “effect on interaction of Tiam-1 DH/PH domain with Rac1(G15A)” value was “did not affect”. The inhibition at 50 µM in [11] (read-out: inhibition of Tiam-1/Rac1(G15A) interaction) worked out at 64%.

In the case of `Cc1cc(/C=c2/sc3nc4ccccc4n3c2=O)c(C)n1-c1ccccc1` [ITX3], the effective concentration at Trio is 50 to 100 µM.

With `O=C(C#Cc1ccccc1)c1cccc([N+](=O)[O-])c1` [MLS000532223], at Rac [12], the “effect on GTP binding to Rac” value is “prevents GTP binding to Rac”.

`CCN(CC)CCCC(C)Nc1nc(C)cc(Nc2ccc3nc(C)cc(N)c3c2)n1` (stereo not shown) [NSC23766, reference compound]: in the series with MDA-MB-435 cells [6] (50 μM, MDA-MB-435), the “effect on lamellopodia formation” value was “no significant effect”. For the same compound, in the series on Rac [13], the IC50 is 50 to 100 µM.

The IC50 is the concentration that inhibits the measured activity by half.
